Results taken from PMC7367925, “The EU-ToxRisk method documentation, data processing and chemical testing pipeline for the regulatory use of new approach methods” (Archives of Toxicology, 2020).
Like-named read-outs stand apart in the source and are kept apart here.

Experiments:
[1] = human, plasma; cited from earlier work
[2] = test system: U-2 OS reporter cell lines battery; assay: CALUX reporter gene assay battery as a whole; settings: all CALUX assays, 13 concentrations, 24 h exposure
[3] = parameters: method as in Hardman JG 2001; settings: known Cmax in man; ref Hardman JG 2001; cited from earlier work
[4] = pooled test systems of the NAM panel (all test methods)
Androgen receptor = target: T1, Androgen receptor (Homo sapiens, UniProt P10275); assay type: cell-based; settings: 24 h exposure, lowest effect level PC20, reference agonist at EC50, means from 3 assay runs
T1 construct: host or cells: U-2 OS
T1 sequence (P10275 1-920): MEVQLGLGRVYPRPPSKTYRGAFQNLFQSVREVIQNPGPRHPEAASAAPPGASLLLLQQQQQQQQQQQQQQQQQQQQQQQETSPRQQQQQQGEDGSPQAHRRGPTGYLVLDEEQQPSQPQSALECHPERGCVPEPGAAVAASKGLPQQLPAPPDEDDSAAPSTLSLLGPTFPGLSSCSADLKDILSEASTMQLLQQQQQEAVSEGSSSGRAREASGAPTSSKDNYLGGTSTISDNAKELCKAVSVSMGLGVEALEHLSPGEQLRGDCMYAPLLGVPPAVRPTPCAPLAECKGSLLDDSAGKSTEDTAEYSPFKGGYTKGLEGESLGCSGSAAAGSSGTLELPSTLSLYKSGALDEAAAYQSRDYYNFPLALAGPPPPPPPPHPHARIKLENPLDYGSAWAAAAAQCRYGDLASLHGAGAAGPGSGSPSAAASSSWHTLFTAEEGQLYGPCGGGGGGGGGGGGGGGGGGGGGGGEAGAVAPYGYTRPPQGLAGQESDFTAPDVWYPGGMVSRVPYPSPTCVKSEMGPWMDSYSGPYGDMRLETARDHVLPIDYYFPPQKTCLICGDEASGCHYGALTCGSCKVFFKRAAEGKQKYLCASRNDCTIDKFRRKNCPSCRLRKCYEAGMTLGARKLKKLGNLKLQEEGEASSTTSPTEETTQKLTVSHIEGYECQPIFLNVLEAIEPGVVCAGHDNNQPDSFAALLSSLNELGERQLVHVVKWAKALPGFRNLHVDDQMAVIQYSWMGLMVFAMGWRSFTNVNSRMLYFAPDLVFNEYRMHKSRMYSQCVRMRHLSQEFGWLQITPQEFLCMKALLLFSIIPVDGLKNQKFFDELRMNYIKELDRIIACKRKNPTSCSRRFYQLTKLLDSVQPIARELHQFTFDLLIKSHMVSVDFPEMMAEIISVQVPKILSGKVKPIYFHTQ
Description: (§1) After 24 h, exposure medium was prepared. […] All samples were tested in triplicates. […] Fig. SM_4. […] Fig. SM_4.
(§2) Supplementary Material SM_4
(§3) Overview of CALUX assays.
(§4) This is defined as the concentration of test compound […]
(§5) for an antagonist assay is a PC20.
(§6) PC = positive control. FI = fold induction. PC10: concentration where test compound causes an activation equal to 10% of the maximum effect (positive control). PC20: concentration where test compound causes […]
(§7) FI=1.5: concentration where test
(§8) (A) exemplary graph of concentration- […]
(§9) receptor antagonism assay with PC20 as lowest-effect-level. (C) exemplary graph for assay with 1.5 fold inductionas lowest effect level. 9

[5] = target: T2, Thyroid hormone receptor beta (Homo sapiens, UniProt P10828); assay: TRb-anti CALUX; assay type: cell-based; settings: 24 h exposure, lowest effect level PC20, reference agonist at EC50, means from 3 assay runs
T2 construct: host or cells: U-2 OS
T2 sequence (P10828 1-461): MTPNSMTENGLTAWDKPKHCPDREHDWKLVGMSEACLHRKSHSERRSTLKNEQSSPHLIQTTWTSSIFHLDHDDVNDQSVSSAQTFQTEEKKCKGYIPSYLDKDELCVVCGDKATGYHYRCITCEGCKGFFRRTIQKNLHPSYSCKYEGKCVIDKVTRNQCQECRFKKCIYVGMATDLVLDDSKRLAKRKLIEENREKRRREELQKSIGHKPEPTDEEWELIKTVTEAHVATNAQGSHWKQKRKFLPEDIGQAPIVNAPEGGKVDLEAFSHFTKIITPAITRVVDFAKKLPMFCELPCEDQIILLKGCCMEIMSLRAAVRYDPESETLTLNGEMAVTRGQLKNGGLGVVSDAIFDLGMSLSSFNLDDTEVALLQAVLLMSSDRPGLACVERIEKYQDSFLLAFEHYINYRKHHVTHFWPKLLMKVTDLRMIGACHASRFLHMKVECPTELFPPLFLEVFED
Description: as §1
Cell line Endpoint effect Reference compound […]
Cytotox CALUX Cytoxicity PC20 tributyltinacetate
as §2, §3, §4, §5, §6, §7, §8, §9

[6] = test system: Transcription of p21 inhibitor of cell cycle progression; assay: p21 CALUX; assay type: cell-based, human; settings: 24 h exposure, lowest effect level PC10, means from 3 assay runs
Description: as §1, §2, §3, §4, §5, §6, §7, §8, §9

[7] = test system: p53-dependent pathway activation / genotoxicity; assay type: cell-based, human; settings: for PoD p53: 24 h exposure, lowest effect level FI=1.5, means from 3 assay runs
Description: as §1, §2, §3, §4, §5, §6, §7, §8, §9

Progesterone receptor = target: T3, Progesterone receptor (Homo sapiens, UniProt P06401); assay: PR-anti CALUX; assay type: cell-based; settings: 24 h exposure, lowest effect level PC20, reference agonist at EC50, means from 3 assay runs
T3 construct: host or cells: U-2 OS
T3 sequence (P06401 1-933): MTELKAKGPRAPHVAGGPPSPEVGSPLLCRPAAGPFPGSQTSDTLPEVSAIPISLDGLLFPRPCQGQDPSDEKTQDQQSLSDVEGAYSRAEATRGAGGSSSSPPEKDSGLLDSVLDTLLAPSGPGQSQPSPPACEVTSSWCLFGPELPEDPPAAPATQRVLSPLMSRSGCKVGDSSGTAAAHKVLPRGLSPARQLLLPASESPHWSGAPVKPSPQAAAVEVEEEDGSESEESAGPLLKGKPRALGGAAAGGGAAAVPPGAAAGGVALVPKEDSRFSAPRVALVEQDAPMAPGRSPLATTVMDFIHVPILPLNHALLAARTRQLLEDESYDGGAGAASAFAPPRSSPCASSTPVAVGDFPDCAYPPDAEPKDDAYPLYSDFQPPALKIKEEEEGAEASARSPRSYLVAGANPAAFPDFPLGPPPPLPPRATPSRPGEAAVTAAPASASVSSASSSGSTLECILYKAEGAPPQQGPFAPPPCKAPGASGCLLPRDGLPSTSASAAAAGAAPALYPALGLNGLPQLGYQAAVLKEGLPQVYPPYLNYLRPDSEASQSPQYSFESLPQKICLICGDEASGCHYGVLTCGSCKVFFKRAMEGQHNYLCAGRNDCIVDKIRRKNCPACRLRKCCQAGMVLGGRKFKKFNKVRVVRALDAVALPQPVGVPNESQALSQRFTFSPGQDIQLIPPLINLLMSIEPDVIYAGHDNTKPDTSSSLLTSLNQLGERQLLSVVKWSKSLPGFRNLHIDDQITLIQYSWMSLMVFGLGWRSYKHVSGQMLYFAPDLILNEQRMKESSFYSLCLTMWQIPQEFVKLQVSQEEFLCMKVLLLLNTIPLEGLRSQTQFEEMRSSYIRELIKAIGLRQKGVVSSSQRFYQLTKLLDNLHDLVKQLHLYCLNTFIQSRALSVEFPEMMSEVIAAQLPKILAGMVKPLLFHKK
Description: as §1, §2, §3, §4, §5, §6, §7, §8, §9

U-2 OS cells [8] = settings: human
U-2 OS cells [9] = assay: Cytotox CALUX; settings: 24 h exposure, lowest effect level PC20, means from 3 assay runs
Pregnane X receptor = target: T4, Pregnane X receptor (Homo sapiens, UniProt O75469); assay: PXR CALUX; assay type: cell-based; settings: 24 h exposure, lowest effect level PC10, means from 3 assay runs
T4 construct: host or cells: U-2 OS
T4 sequence (O75469 1-434): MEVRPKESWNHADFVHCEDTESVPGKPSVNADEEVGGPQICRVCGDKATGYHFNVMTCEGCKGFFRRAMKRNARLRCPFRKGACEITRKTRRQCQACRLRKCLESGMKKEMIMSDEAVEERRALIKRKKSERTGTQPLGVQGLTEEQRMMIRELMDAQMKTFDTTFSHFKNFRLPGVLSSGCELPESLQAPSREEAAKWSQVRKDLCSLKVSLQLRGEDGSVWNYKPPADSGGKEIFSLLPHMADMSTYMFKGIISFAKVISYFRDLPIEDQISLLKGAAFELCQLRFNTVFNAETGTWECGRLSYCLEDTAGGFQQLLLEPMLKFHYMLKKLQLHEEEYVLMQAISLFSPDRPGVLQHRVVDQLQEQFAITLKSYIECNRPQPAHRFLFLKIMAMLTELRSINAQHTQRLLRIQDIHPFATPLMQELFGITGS
Description: as §1, §2, §3, §4, §5, §6, §7, §8, §9

SMILES | response profile over the CALUX battery (in words) [2] | viability [4] [%] | PoD AR - anta (Androgen receptor) | PoD TRβ - anta [5] | PoD p53 [7] | further results
CC(=O)Nc1ccc(O)cc1 [Paracetamol] | no effect | – | – | – | – | protein binding [1]: 15%
CCCCNC(=O)NS(=O)(=O)c1ccc(C)cc1 [Tolbutamide] | – | 100 | – | – | – | Cmax [3]: 196 µM
CC(=O)O[C@H]1C(=O)[C@@]2(C)[C@H]([C@H](OC(=O)c3ccccc3)[C@]3(O)C[C@H](OC(=O)[C@H](O)[C@@H](NC(=O)c4ccccc4)c4ccccc4)C(C)=C1C3(C)C)[C@]1(OC(C)=O)CO[C@@H]1C[C@@H]2O [Taxol] | – | – | 7.3 -log(M) | 7.4 -log(M) | 8.2 -log(M) | PoD p21 [6]: 8.0 -log(M); concentration activating expression of p53 [7]: < 10 nM; PoD PR - anta (Progesterone receptor): 7.4 -log(M); PoD cytotoxicity (U-2 OS cells [8]): 5.6; cytotoxic concentration (U-2 OS cells [8]): about 2.5 µM
Oc1c(Cl)cc(Cl)c(Cl)c1Cc1c(O)c(Cl)cc(Cl)c1Cl [Hexachlorophene] | only activated nuclear hormone receptor related assays | – | 5.7 -log(M) | 6.0 -log(M) | – | PoD cytotoxicity (U-2 OS cells [9]): 5.5 -log(M)
CCOC(=O)C(C)(C)Oc1ccc(Cl)cc1 [Clofibrate] | no effect | 100 | – | – | – | –
CNC(=O)Oc1cccc2ccccc12 [Carbaryl] | – | – | – | – | 3.8 -log(M) | PoD PXR - ago (Pregnane X receptor): 4.0 -log(M)
